# Assay results reported in ChEMBL document CHEMBL3885861, “Open TG-GATES”.
# Organism: Rattus norvegicus
# Experiment: Open TG-GATES - Regimen: Single
# Type: toxicity, organism-based, Sprague-Dawley
# Set-up: regimen Single, gender Male, age 6 weeks
# Settings: in vivo, po, 75 mg/kg, route gavage, dose level Low; for APTT / Bas / Eos / Fbg / Hb / Ht / Lym / MCH / MCHC / MCV / Mono / Neu / PT / Plat / RBC / Ret / WBC: tissue Blood; for KIDNEY_L / KIDNEY_R / KIDNEY_TOTAL: tissue Kidney; for LIVER: tissue Liver; for A/G / ALP / ALT / AST / BUN / CRE / Ca / Cl / DBIL / GLC / IP / K / LDH / Na / PL / RALB / TBIL / TC / TG / TP / gamma-GTP: tissue Plasma
structure (smiles),measurement,setting,value
CN(C/C=C/C#CC(C)(C)C)Cc1cccc2ccccc12 [TERBINAFINE],TERMINAL_BW,3 h,225.9 g
same,APTT,3 h,19.4 s
same,Bas,3 h,0.8%
same,Eos,3 h,1%
same,Fbg,3 h,219 mg/dL
same,Hb,3 h,13.2 g/dL
same,Ht,3 h,39.1%
same,Lym,3 h,82.2%
same,MCH,3 h,21.2 pg
same,MCHC,3 h,33.8%
same,MCV,3 h,62.7 fL
same,Mono,3 h,2.2%
same,Neu,3 h,14%
same,PT,3 h,12 s
same,Plat,3 h,116.2 x10_4/uL
same,RBC,3 h,625.2 x10_4/ul
same,Ret,3 h,7.3%
same,WBC,3 h,88.5 x10_2/uL
same,KIDNEY_L,3 h,1 g
same,KIDNEY_R,3 h,1 g
same,KIDNEY_TOTAL,3 h,2 g
same,LIVER,3 h,10.4 g
same,A/G,3 h,1.6
same,ALP,3 h,998 IU/L
same,ALT,3 h,38.6 IU/L
same,AST,3 h,69 IU/L
same,BUN,3 h,11.8 mg/dL
same,CRE,3 h,0.4 mg/dL
same,Ca,3 h,10.7 mg/dL
same,Cl,3 h,102.6 meq/L
same,DBIL,3 h,0.088 mg/dL
same,GLC,3 h,202.8 mg/dL
same,IP,3 h,9.5 mg/dL
same,K,3 h,3.8 meq/L
same,LDH,3 h,161.4 IU/L
same,Na,3 h,141.4 meq/L
same,PL,3 h,143.6 mg/dL
same,RALB,3 h,3.4 g/dL
same,TBIL,3 h,0.1 mg/dL
same,TC,3 h,79.4 mg/dL
same,TG,3 h,51.2 mg/dL
same,TP,3 h,5.5 g/dL
same,gamma-GTP,3 h,0.8 IU/L
same,TERMINAL_BW,6 h,221.9 g
same,APTT,6 h,19.3 s
same,Bas,6 h,0.8%
same,Eos,6 h,1%
same,Fbg,6 h,224.2 mg/dL
same,Hb,6 h,13.5 g/dL
same,Ht,6 h,40%
same,Lym,6 h,78.8%
same,MCH,6 h,21.3 pg
same,MCHC,6 h,33.7%
same,MCV,6 h,63.1 fL
same,Mono,6 h,2.4%
same,Neu,6 h,17.2%
same,PT,6 h,12.1 s
same,Plat,6 h,113 x10_4/uL
same,RBC,6 h,634 x10_4/ul
same,Ret,6 h,6.9%
same,WBC,6 h,114.1 x10_2/uL
same,KIDNEY_L,6 h,1 g
same,KIDNEY_R,6 h,1 g
same,KIDNEY_TOTAL,6 h,2 g
same,LIVER,6 h,10.2 g
same,A/G,6 h,1.6
same,ALP,6 h,872.2 IU/L
same,ALT,6 h,34.6 IU/L
same,AST,6 h,66 IU/L
same,BUN,6 h,10.6 mg/dL
same,CRE,6 h,0.4 mg/dL
same,Ca,6 h,10.9 mg/dL
same,Cl,6 h,102.2 meq/L
same,DBIL,6 h,0.086 mg/dL
same,GLC,6 h,200 mg/dL
same,IP,6 h,9.3 mg/dL
same,K,6 h,4 meq/L
same,LDH,6 h,147 IU/L
same,Na,6 h,140.8 meq/L
same,PL,6 h,143.2 mg/dL
same,RALB,6 h,3.4 g/dL
same,TBIL,6 h,0.1 mg/dL
same,TC,6 h,77.6 mg/dL
same,TG,6 h,76.6 mg/dL
same,TP,6 h,5.5 g/dL
same,gamma-GTP,6 h,1 IU/L
same,TERMINAL_BW,9 h,219.9 g
same,APTT,9 h,18.1 s
same,Bas,9 h,0.8%
same,Eos,9 h,1.2%
same,Fbg,9 h,215.6 mg/dL
same,Hb,9 h,13.2 g/dL
same,Ht,9 h,39.5%
same,Lym,9 h,77.6%
same,MCH,9 h,21.6 pg
same,MCHC,9 h,33.6%
same,MCV,9 h,64.3 fL
same,Mono,9 h,2%
same,Neu,9 h,18.4%
same,PT,9 h,12.6 s
same,Plat,9 h,113.5 x10_4/uL
same,RBC,9 h,614.2 x10_4/ul
same,Ret,9 h,6.6%
same,WBC,9 h,90.4 x10_2/uL
same,KIDNEY_L,9 h,1 g
same,KIDNEY_R,9 h,1 g
same,KIDNEY_TOTAL,9 h,2 g
same,LIVER,9 h,8.9 g
same,A/G,9 h,1.6
same,ALP,9 h,930.2 IU/L
same,ALT,9 h,33.2 IU/L
same,AST,9 h,71.4 IU/L
same,BUN,9 h,10.6 mg/dL
same,CRE,9 h,0.3 mg/dL
same,Ca,9 h,10.3 mg/dL
same,Cl,9 h,103.8 meq/L
same,DBIL,9 h,0.062 mg/dL
same,GLC,9 h,202.6 mg/dL
same,IP,9 h,9.9 mg/dL
same,K,9 h,3.8 meq/L
same,LDH,9 h,195.4 IU/L
same,Na,9 h,141.4 meq/L
same,PL,9 h,124 mg/dL
same,RALB,9 h,3.3 g/dL
same,TBIL,9 h,0.1 mg/dL
same,TC,9 h,68.8 mg/dL
same,TG,9 h,29.8 mg/dL
same,TP,9 h,5.4 g/dL
same,gamma-GTP,9 h,1.6 IU/L
same,TERMINAL_BW,24 h,238.9 g
same,APTT,24 h,19.4 s
same,Bas,24 h,0.8%
same,Eos,24 h,1%
same,Fbg,24 h,227.2 mg/dL
same,Hb,24 h,13.3 g/dL
same,Ht,24 h,39.7%
same,Lym,24 h,77.2%
same,MCH,24 h,21.1 pg
same,MCHC,24 h,33.6%
same,MCV,24 h,62.9 fL
same,Mono,24 h,3%
same,Neu,24 h,17.8%
same,PT,24 h,12 s
same,Plat,24 h,124.5 x10_4/uL
same,RBC,24 h,631.4 x10_4/ul
same,Ret,24 h,6.6%
same,WBC,24 h,82.1 x10_2/uL
same,KIDNEY_L,24 h,1.1 g
same,KIDNEY_R,24 h,1 g
same,KIDNEY_TOTAL,24 h,2.1 g
same,LIVER,24 h,11.8 g
same,A/G,24 h,1.5
same,ALP,24 h,1096 IU/L
same,ALT,24 h,42.8 IU/L
same,AST,24 h,84.8 IU/L
same,BUN,24 h,15.2 mg/dL
same,CRE,24 h,0.4 mg/dL
same,Ca,24 h,10.8 mg/dL
same,Cl,24 h,104.2 meq/L
same,DBIL,24 h,0.1 mg/dL
same,GLC,24 h,194.2 mg/dL
same,IP,24 h,7.7 mg/dL
same,K,24 h,4.3 meq/L
same,LDH,24 h,207.8 IU/L
same,Na,24 h,141 meq/L
same,PL,24 h,135.6 mg/dL
same,RALB,24 h,3.4 g/dL
same,TBIL,24 h,0.2 mg/dL
same,TC,24 h,68.6 mg/dL
same,TG,24 h,109.2 mg/dL
same,TP,24 h,5.6 g/dL
same,gamma-GTP,24 h,1.6 IU/L
